≈ marks a conversion by molar mass, not a printed value.
What was measured:
[1] = Partition Coefficient Studies (water solubility, heptane solubility, water/heptane partition)
[2] = Stability of the 7-hydroxymethyl derivative in water; type: physicochemical
[3] = e.g., heptane; cited from earlier work
phosphodiesterase = conditions: Sutherland and Rall 1958; cited from earlier work
[4] = heptane, organic solvent or mixture

Row | Structure (SMILES) | solubility ([1]; water) | solubility [1, 4] | Water/Heptane partition coefficient [1] | other results
1 | CN(C)CC(=O)OCn1cnc2c1c(=O)n(C)c(=O)n2C | > 1000 mg/mL | – | – | Heptane (solubility) ([1]; heptane): < 10 mg/500 ml
2 | CCN(CC)C(=O)CCC(=O)OCn1cnc2c1c(=O)n(C)c(=O)n2C | 26.3 mg/mL (≈ 72 mM) | 0.17 mg/mL (≈ 0.465 mM) | – | –
3 | Cn1c(=O)c2c(ncn2CO)n(C)c1=O [7-hydroxymethyl derivative, 7-hydroxymethyl theophylline] | – | – | – | stability in water [2]: extremely unstable in water
4 | CCC(=O)OCn1cnc2c1c(=O)n(C)c(=O)n2C [C2 H5, 7-Propionyloxymethyl-theophylline] | 3.87 mg/mL (≈ 14.5 mM) | 0.18 mg/mL (≈ 0.676 mM) | 32.0 | –
5 | CCCC(=O)OCn1cnc2c1c(=O)n(C)c(=O)n2C [C3 H7, 7-Butanoyloxymethyl-theophylline] | 3.89 mg/mL (≈ 13.9 mM) | 0.65 mg/mL (≈ 2.32 mM) | 6.30 | –
6 | CCCCCC(=O)OCn1cnc2c1c(=O)n(C)c(=O)n2C [C5 H11, 7-Hexanoyloxymethyl-theophylline] | 0.11 mg/mL (≈ 0.357 mM) | 2.26 mg/mL (≈ 7.33 mM) | 0.42 | –
7 | CCCCCCCC(=O)OCn1cnc2c1c(=O)n(C)c(=O)n2C [C7 H15, 7-Octanoyloxymethyl-theophylline] | 0.12 mg/mL (≈ 0.357 mM) | 0.52 mg/mL (≈ 1.55 mM) | 0.06 | –
8 | Cn1c(=O)c2c(ncn2COC(=O)C(C)(C)C)n(C)c1=O [C(CH3)3, 7-Pivalyloxymethyl-theophylline] | 2.01 mg/mL (≈ 6.83 mM) | 1.55 mg/mL (≈ 5.27 mM) | 1.11 | –
9 | Cn1c(=O)c2[nH]cnc2n(C)c1=O [theophylline] | – | – | – | solubility in lipid-like solvents [3]: almost insoluble; effect on degradation of cyclic AMP by inhibiting phosphodiesterase activity (phosphodiesterase): decrease the degradation of cyclic AMP by inhibiting phosphodiesterase activity

— patent US4061753A, “Treating psoriasis with transient pro-drug forms of xanthine derivatives” (INTERx Research Corporation, priority 1976, dated 1977)
